“Also recorded” adds a separate entry of the source.

One experiment concerns C. acnes tdk knock-out. The class given is cell-based, Cutibacterium acnes.
Another experiment concerns PCi-SEB_Cau sebocytes. The experiment is classed as cell-based, human.
The subject of experiment [1] is Neutrophil gelatinase-associated lipocalin 2 (NGAL) protein. Particulars: human, in vivo; cited from earlier work.

For the molecule `O=c1[nH]c(=O)n([C@H]2C[C@H](O)[C@@H](CO)O2)cc1F` [FUDR, 5-fluoro-2′-deoxyuridine], the “growth of tdk knock-out (knock-in) strain on FUDR plates” value in the experiment with C. acnes tdk knock-out is given as “could grow; also recorded: no growth inhibiting effect”. For the molecule `CC[C@H]1OC(=O)[C@H](C)[C@@H](O[C@H]2C[C@@](C)(OC)[C@@H](O)[C@H](C)O2)[C@H](C)[C@@H](O[C@@H]2O[C@H](C)C[C@H](N(C)C)[C@H]2O)[C@](C)(O)C[C@@H](C)C(=O)[C@H](C)[C@@H](O)[C@]1(C)O` [ery, erythromycin], the “growth of tdk knock-out (knock-in, ermE) strain on erythromycin plates” value in the experiment on C. acnes tdk knock-out is listed as “could grow”. On to `CC1=C(/C=C/C(C)=C/C=C/C(C)=C\C(=O)O)C(C)(C)CCC1` [isotretinoin, 13-cis retinoic acid], for which, in the experiment with PCi-SEB_Cau sebocytes, the “decrease in sebum production compared to AA treated cells” value is reported as 1.8 fold. Also, the “increase in NGAL protein in treated patients” value in experiment [1] is listed as 7 fold.

Values taken from US20250146007A1 (priority 2022, published 2025).
